The data set has as its system mouse NASH model. Nature of the data set: High fat diet + CCl4 mouse NASH model. The data set is classed as in vivo, C57BL/6J mice. The method, then:
C57BL/6J mice were fed a high fat diet for 10 weeks to induce obesity (>38 g BW). Obese mice were injected intraperitoneally (i.p.) twice a week for four weeks with 0.5 μl/g 25% CCl4 (formulated in olive oil) to induce fibrosis, and one group of normal BW mice were injected i.p. twice a week for four weeks with olive oil to serve as a healthy control. […] On CCl4 dosing days, CCl4 was administered at 4 hours post compound or vehicle dosing. On day 27, all animals were fasted for about 16 hours before terminal euthanasia. On day 28, all animals were sacrificed and various biological parameters were analyzed. Total body, liver, heart and brain weight were measured and changes in liver and heart weight were normalized using brain weight.
Liver samples were collected for whole transcriptome analysis by RNA sequencing (RNAseq). RNAseq library (n=5 per group) preparation and sequencing was performed using Illumina standard protocols. Alignment of sequencing reads was performed using STAR aligner software and read counts were estimated using RSEM. Differentially expressed genes (compared to vehicle-treated NASH control mice) were determined using EdgeR software. Gene ontology analysis was performed using Advaita software with fold-change and adjusted p-value cutoffs of >1.5 and <0.05, respectively. Gene ontologies were derived from the Gene Ontology Consortium database (2019 Apr. 26) (Ashburner et al., Gene ontology: Tool for the unification of biology. Nature Genetics 25(1): 25-9 (2000); Gene Ontology Consortium, Creating the Gene Ontology Resource: Design and Implementation. Genome Research 11: 1425-1433 (2001)).

The text below walks through data of patent US20240293416A1, “TREATMENT OF LIVER DISORDERS WITH A THR-ß AGONIST” (Terns Pharmaceuticals, Inc., priority 2021, published 2024).

Regarding `N#Cc1nn(-c2cc(Cl)c(Oc3n[nH]c(=O)c4ccccc34)c(Cl)c2)c(=O)[nH]c1=O` [Compound 1, 2-(3,5-dichloro-4-((4-oxo-3,4-dihydrophthalazin-1-yl)oxy)phenyl)-3,5-dioxo-2,3,4,5-tetrahydro-1,2,4-triazine-6-nitrile], the “liver fibrosis (histology)” value (3 and 10 mpk, 28 days) is “significantly reduced liver fibrosis”. Further, for the setting “28 days”, the “liver inflammation (histology)” value is listed as “trend in inflammation reduction”. For the same compound, where the note is “all doses tested, 28 days”, the “liver steatosis (histology)” value was “significantly reduced steatosis at all doses tested”; the “serum total cholesterol, triglycerides and ALT” value is recorded as “significantly reduced”. In addition, the “expression of genes associated with collagen extracellular matrix and hepatic stellate cell activation” value (liver RNAseq vs NASH control mice) was “significant effect”. In addition, where the note is “orally once a day for 28 days”, the liver/brain weight entry is on record as “significantly reduced” and the “total body weight or heart/brain weight” value is “no effect”. The “steady state plasma AUC0-∞ sufficient to ensure efficacy” value (preclinical animal models) was “approximately 3,320 ng*hg/mL”.
